Laboratory results from PubChem BioAssay (NCI).
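The compound was tested at five concentrations on cells cultured in 96-well plates, with a 48-hour exposure period. Abbreviation: GI50, concentration required for 50% inhibition of growth. TGI is the concentration that stops growth completely.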

What was measured:
Assay in all cases: growth of human tumour cells (NCI), 48 h
HL-60(TB) leukemia = test system: HL-60(TB) leukemia
A549 NSCLC = test system: A549 NSCLC
HOP-62 NSCLC = test system: HOP-62 NSCLC
OVCAR-8 ovarian = test system: OVCAR-8 ovarian
SR leukemia = test system: SR leukemia
ACHN renal = test system: ACHN renal
HCC-2998 colon = test system: HCC-2998 colon
T-47D breast = test system: T-47D breast
M14 melanoma = test system: M14 melanoma
COLO 205 colon = test system: COLO 205 colon
NCI-H460 lung = test system: NCI-H460 lung
NCI/ADR-RES ovarian = test system: NCI/ADR-RES ovarian
HCT-116 colon = test system: HCT-116 colon
K-562 leukemia = test system: K-562 leukemia
SN12C renal = test system: SN12C renal
HCT-15 colon = test system: HCT-15 colon
EKVX NSCLC = test system: EKVX NSCLC
NCI-H226 lung = test system: NCI-H226 lung
SK-MEL-28 melanoma = test system: SK-MEL-28 melanoma
SK-MEL-2 melanoma = test system: SK-MEL-2 melanoma
UO-31 renal = test system: UO-31 renal
MALME-3M melanoma = test system: MALME-3M melanoma
SNB-19 CNS = test system: SNB-19 CNS
HT29 colon = test system: HT29 colon
MDA-MB-231 breast = test system: MDA-MB-231 breast
KM12 colon = test system: KM12 colon
MDA-MB-435 = test system: MDA-MB-435
HS 578T breast = test system: HS 578T breast
CAKI-1 renal = test system: CAKI-1 renal

## O=C(NNc1nc2cc(F)c(F)cc2n2c(CN3CC4CNCC4C3)ccc12)c1ncccn1 (configuration not stated)
HL-60(TB) leukemia
  GI50: 2620 nM
  TGI: 10.7 µM
A549 NSCLC
  GI50: 2820 nM
  TGI: 13.2 µM
HOP-62 NSCLC
  GI50: 1040 nM
  TGI: 11.2 µM
OVCAR-8 ovarian
  GI50: 2180 nM
  TGI: 12.8 µM
SR leukemia
  GI50: 1530 nM
  TGI: > 100 µM
ACHN renal
  GI50: 512 nM
  TGI: 10.7 µM
HCC-2998 colon
  GI50: 4.14 µM
  TGI: 19.3 µM
T-47D breast
  GI50: 3.08 µM
  TGI: 14.2 µM
M14 melanoma
  GI50: 1140 nM
  TGI: 9.42 µM
COLO 205 colon
  GI50: 2810 nM
  TGI: 11.8 µM
NCI-H460 lung
  GI50: 567 nM
  TGI: 6.99 µM
NCI/ADR-RES ovarian
  GI50: 5.29 µM
  TGI: 22.7 µM
HCT-116 colon
  GI50: 1600 nM
  TGI: 14.5 µM
K-562 leukemia
  GI50: 2400 nM
  TGI: 74.5 µM
SN12C renal
  GI50: 3.06 µM
  TGI: 13.8 µM
HCT-15 colon
  GI50: 526 nM
  TGI: 25.1 µM
EKVX NSCLC
  GI50: 1790 nM
  TGI: 17.7 µM
NCI-H226 lung
  GI50: 2770 nM
  TGI: 18.1 µM
SK-MEL-28 melanoma
  GI50: 2830 nM
  TGI: 14.8 µM
SK-MEL-2 melanoma
  GI50: 4.23 µM
  TGI: 20.7 µM
UO-31 renal
  GI50: 448 nM
  TGI: 10.1 µM
MALME-3M melanoma
  GI50: 2530 nM
SNB-19 CNS
  GI50: 3.53 µM
  TGI: 29.1 µM
HT29 colon
  GI50: 3.76 µM
  TGI: 32.2 µM
MDA-MB-231 breast
  GI50: 3.64 µM
  TGI: 21 µM
KM12 colon
  GI50: 3.18 µM
  TGI: 22.8 µM
MDA-MB-435
  GI50: 3.85 µM
  TGI: 16.4 µM
HS 578T breast
  GI50: 5.98 µM
  TGI: 37 µM
CAKI-1 renal
  GI50: 756 nM
  TGI: 11.9 µM
